Experimental data reported in patent US6797721B2, “Phorboxazole derivatives for treating cancer” (Parker Hughes Institute, priority 1999, dated 2004).

Columns and labels:
Format in all cases: cell-based
[1] = tested on: U373 human glioblastoma cells; experiment: Clonogenic assay, U373; conditions: 7 days
Protocol: The growth-inhibiting activity of the synthetic Phorboxazole A and the synthesized derivatives was tested in clonogenic assays. Cancer cells were treated with 1 nM, 10 nM, and 100 nM doses of synthetic Phorboxazole A or derivatives of phorboxazole A. Treated cells included U373 human glioblastoma cells, NALM-6, human B-lineage acute lymphoblastic leukemia cells, and BT-20 human breast cancer cells. The cancer cells were resuspended in clonogenic medium consisting of alpha-MEM supplemented with 0.9% methylcellulose, 30% fetal bovine serum, and 50 μM 2-mercaptoethanol. Cells were plated in duplicate Petri dishes at 100,000 cells/mL/dish and cultured in a humidified 5% CO2 incubator for 7 days. Cancer cell colonies were enumerated on a grid using an inverted phase microscope of high optical resolution. Results were expressed as % inhibition of clonogenic cells at a particular concentration of the test agent using the formula:
% Inhibition=(1−Mean # of colonies [Test]/Mean # of colonies [Control]×100.

[2] = tested on: U373 human glioblastoma cells; experiment: MTT cytotoxicity assay, U373; conditions: U373 MG, U373 (brain tumor, glioblastoma), 24-36 hours, read-out: IC50 [MTT]
Protocol: The cytotoxicity assay of synthetic Phorboxazole A and various derivative compounds against human tumor cells was performed using the MTT (3-[4,5-dimethylthiazol-2-yl]-2,5-diphenyl tetrazolium bromide) assay (Boehringer Mannheim Corp., Indianapolis, Ind.). Briefly, exponentially growing brain tumor cells were seeded into a 96-well plate at a density of 2.5×10^4 cells/well and incubated for 36 hours at 37° C. prior to drug exposure. On the day of treatment, culture medium was carefully aspirated from the wells and replaced with fresh medium containing the various phorboxazole A derivative compounds as well as the tyrosine kinase inhibitory isoflavone genistein (GEN) at concentrations ranging from 0.1 to 250 μM. Triplicate wells were used for each treatment.
Human glioblastoma cells U373 (brain cancer), human B-lineage acute lymphoblastic leukemia cells NALM-6, and human breast cancer cells BT-20 were obtained from American Type Culture Collection (Rockville, Md.) and maintained as a continuous cell line in Dulbecco's modified Eagles's medium supplemented with 10% fetal bovine serum and antibiotics.
The cells were incubated with the various compounds for 24-36 hours at 37° C. in a humidified 5% CO2 atmosphere. To each well, 10 μl of MTT (0.5 mg/ml final concentration) was added and the plates were incubated at 37° C. for 4 hours to allow MTT to form formazan crystals by reacting with metabolically active cells. The fonnazan crystals were solubilized overnight at 37° C. in a solution containing 10% SDS in 0.01 M HCl. The absorbance of each well was measured in a microplate reader (Labsystems) at 540 nm and a reference wavelength of 690 nm. To translate the OD540 values into the number of live cells in each well, the OD540 values were compared to those on standard OD540-versus-cell number curves generated for each cell line. The percent survival was calculated using the formula: [formula]
The IC50 values were calculated by non-linear regression analysis.

[3] = tested on: RPMI-18226 (multiple myeloma); experiment: MTT cytotoxicity assay, RPMI-18226; conditions: Homo sapiens, RPMI18226
U373 glioblastoma cells = experiment: Matrigel invasion assay (Boyden chambers); conditions: Homo sapiens, U373 MG; cells treated 72 hours; invasion 48 hours; read-out: IC50, inhibition of glioblastoma cell invasion through Matrigel
Protocol: The in vitro invasiveness of human brain tumor cell lines U-373 MG and breast cancer cell lines BT-20 and MDA-MB-231 cells was assayed using a previously published method which employs Matrigel™-coated Costar 24-well transwell cell culture chambers (“Boyden chambers”) with 8.0-μm-pore polycarbonate filter inserts (Albini,et.al, 1987, Cancer Res., 47:3239-3245). The chamber filters were coated with 50 μg/ml of Matrigel™ matrix, incubated overnight at room temperature under a laminar flow hood and stored at 4° C. Matrigel™ matrix is made up of several components of the extracellular matrix (ECM), including collagen, laminin and proteo-glycans. The cancer cells were incubated with 500, 250, 125, 62.5, and 31.2 nM concentrations of the synthetic Phorboxazole compounds for 72 hours.
On the day of the experiment, the coated inserts were rehydrated with 0.5 ml serum-free DMEM containing 0.1% bovine serum albumin for 1-2 hours. The treated cells were trypsinized, washed twice with serum-free DMEM containing BSA, counted and resuspended at 1×10^5 cells/ml. A 0.5 ml cell suspension containing 5×10^4 cells in a serum-free DMEM was added to the Matrigel™-coated and rehydrated filter inserts. A volume of 750 μl of NIH fibroblast conditioned medium was placed as a chemoattractant in 24-well plates and the inserts were placed in wells and incubated at 37° C. for 48 hours.
The invasive cells that migrated to the lower side of the filter were fixed, stained with Hema-3 solutions and counted under microscope. Five to 10 random fields per filter were counted to determine the mean (±SE) values for the invasive fraction. The invasive fractions of cells treated with phorboxazole A derivatives were compared to those of DMSO treated control cells and the percent inhibition of invasiveness was determined using the formula: [formula]
Each treatment condition was evaluated in duplicate in 3 independent experiments. IC50 values were calculated by non-linear regression analysis using Graphpad Prisin Software Version 2.0 (Graphpad Software Inc., San Diego, Calif.).

In the case of `C=C1C[C@@H]2C[C@@H]3C[C@@H](O)C[C@@H](O3)c3coc(n3)/C=C/C[C@H]3O[C@@H](/C(C)=C/c4coc(C[C@]5(O)C[C@H](OC)C[C@H]([C@H](O)/C=C(C)/C=C/[C@@H](C/C=C/Br)OC)O5)n4)[C@H](C)[C@@H](OC(=O)/C=C\C[C@@H](C1)O2)[C@H]3C` [Compound 1, Phorboxazole A], the “Mean Number Colonies/10^4 cells” value ([1]; 10 nM) is reported as 378, the “Mean Number Colonies/10^4 cells” value ([1]; 100 nM) is reported as 0 and the inhibition at 0.01 µM ([1]; Homo sapiens, U373 MG, 168 h, 10 nM, read-out: Inhibition of clonogenic growth) is reported as 42.4%. It also gave an inhibition at 0.1 µM ([1]; Homo sapiens, U373 MG, 168 h, 100 nM, read-out: Inhibition of clonogenic growth) greater than 99.9%, an IC50 [2] of 6.7 nM and an IC50 [3] of 55.9 nM. For the same compound, the IC50 (U373 glioblastoma cells) was less than 31.2 nM.
